From US20240300927A1, “AMIDES AS CBL-B INHIBITORS” (Genentech, Inc., priority 2021, published 2024) come the findings set out here.

In test [1] the target is c-Cbl (Homo sapiens (Human), UniProt P22681). The test is described as follows: C-cbl LCK Ub TR-FRET assay (C-cbl Lck HTRF). Type of test: biochemical. On the procedure:
(§1) Compounds were 3-fold serially diluted in DMSO in a 384-well polypropylene plate (#P-05525-BC; Labcyte) to generate a source plate with 10 concentrations of each compound, top concentration=2 mM. 80 nL of DMSO or compounds were transferred to each well of a black 384-well ProxiPlate (#6008260; PerkinElmer) using a Labcyte Echo. 1× assay buffer (50 mM HEPES pH7.0, 100 mM NaCl, 0.01% BSA, 0.01% Triton-X100, 1 mM DTT), 2× enzyme solution (16 nM Biotin-Cbl-b or 12 nM Biotin-c-Cbl in 1× assay buffer), 2× kinase mixture (120 nM His-LCK, 1 mM ATP, 10 mM MgCl2 in assay buffer) and 2.33× detection mixture (4.66× solution 1: 163 nM Anti-HA-D2 antibody (#610HADAB; PerkinElmer), 27.96 nM Streptavidin-EU (#AD0062; PerkinElmer), 1.398 mM EDTA in 1× assay buffer+4.66× solution 2: 2.796 μM UBE2D2/Methylated-HA-Ubiquitin thioester adduct (BostonBiochem) in 1× assay buffer) were prepared. 4 μL of 2× enzyme solution was added to each well containing compound, briefly centrifuged to mix, and incubated for 60 min at room temperature. 4 μL of 2× kinase mixture was added, briefly centrifuged to mix, and incubated for 90 min. at room temperature. 6 μL of detection mixture was added to all wells and briefly centrifuged before incubating for 20 min at room temperature. Plates were read for TR-FRET using an Envision at excitation 340 nm, emission at 615 and 665 nm, 4 flashes per well. IC50 was generated using no LCK as the low control and DMSO as the high control.
(§2) Cbl-b Lck HTRF data in Table 3 is measured according to Example 25 herein; C-cbl Lck HTRF data is measured according to Example 25 herein.
(§3) SPR and the LCK biochemical assay are orthogonal assays: SPR is a protein binding assay while the LCK assay is an enzyme activity assay. SPR measures compound binding affinity to CBL-B/C-CBL, whereas LCK assay measures compound inhibition of CBL-B/C-CBL ubiquitin transfer activity.
(In TR-FRET formats the signal depends on donor and acceptor labels being close together.)

Test [2] addresses Cbl-b (Homo sapiens (Human), UniProt Q13191). The test is described as follows: Cbl-b LCK Ub TR-FRET assay (Cbl-b Lck HTRF). Conditions: for (fold-selectivity): Cbl-b and C-Cbl selectivity, Lck HTRF; for IC50: read-out: Cbl-b Lck HTRF IC50. Type of test: biochemical. On the procedure:
as §1, §2, §3

Chain of Cbl-b (Q13191 40-426): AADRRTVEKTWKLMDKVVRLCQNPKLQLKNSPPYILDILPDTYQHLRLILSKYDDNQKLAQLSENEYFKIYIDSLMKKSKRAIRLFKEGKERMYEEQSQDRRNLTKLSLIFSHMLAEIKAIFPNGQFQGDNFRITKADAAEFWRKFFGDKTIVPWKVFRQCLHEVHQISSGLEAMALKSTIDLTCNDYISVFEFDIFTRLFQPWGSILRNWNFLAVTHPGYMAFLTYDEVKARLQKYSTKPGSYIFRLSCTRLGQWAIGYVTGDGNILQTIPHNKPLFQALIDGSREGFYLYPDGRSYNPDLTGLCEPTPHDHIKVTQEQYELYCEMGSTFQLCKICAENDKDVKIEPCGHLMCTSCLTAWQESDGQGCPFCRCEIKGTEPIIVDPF
Chain of c-Cbl (P22681 47-435): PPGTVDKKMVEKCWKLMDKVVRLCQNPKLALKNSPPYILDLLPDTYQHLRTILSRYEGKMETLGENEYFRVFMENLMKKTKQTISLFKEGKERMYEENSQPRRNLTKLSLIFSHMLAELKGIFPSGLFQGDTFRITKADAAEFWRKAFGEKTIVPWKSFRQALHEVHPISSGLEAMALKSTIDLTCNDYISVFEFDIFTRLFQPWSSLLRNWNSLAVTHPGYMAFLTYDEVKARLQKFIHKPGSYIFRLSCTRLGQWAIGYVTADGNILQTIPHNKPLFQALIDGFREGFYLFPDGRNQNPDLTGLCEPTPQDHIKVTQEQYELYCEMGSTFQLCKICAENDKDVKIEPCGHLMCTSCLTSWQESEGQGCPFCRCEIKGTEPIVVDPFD

The IC50 is the point on the concentration scale where inhibition reaches its midpoint. Turning to `C[C@H](Cc1nncn1C)c1cccc(NC(=O)c2nc(C(F)(F)F)c(CN3CCC4(CC4)C3)[nH]2)c1` [Compound 26, (R)-5-(5-azaspiro[2.4]heptan-5-ylmethyl)-N-(3-(1-(4-methyl-4H-1,2,4-triazol-3-yl)propan-2-yl)phenyl)-4-(trifluoromethyl)-1H-imidazole-2-carboxamide], the IC50 turned out to be 2.2 µM in test [1] and 1.5 µM in test [2]. In test [2], the “(fold-selectivity)” value is given as “(1.5x)”.
In test [1], `Cn1cnnc1[C@@H](F)[C@]1(c2cccc(NC(=O)c3cccc(C(F)(F)F)n3)c2)CCO1` [Compound 504, N-(3-((R)-2-((R)-fluoro(4-methyl-4H-1,2,4-triazol-3-yl)methyl)oxetan-2-yl)phenyl)-6-(trifluoromethyl)picolinamide] yielded an IC50 of 8.7 µM. Moreover, in test [2], the “(fold-selectivity)” value was “(0.55x)” and the IC50 amounted to 16 µM.
`Cn1cnnc1[C@@H](F)[C@@](C)(F)c1cccc(NC(=O)c2cc(CN3CCC4(CC4)C3)nc(C3CC3)n2)c1` [Compound 41, 6-(5-azaspiro[2.4]heptan-5-ylmethyl)-2-cyclopropyl-N-(3-((1R,2S)-1,2-difluoro-1-(4-methyl-4H-1,2,4-triazol-3-yl)propan-2-yl)phenyl)pyrimidine-4-carboxamide]: the IC50 turned out to be 12 µM in test [1] and 4.8 µM in test [2]. The “(fold-selectivity)” value in test [2] is recorded as “(2.5x)”.
In test [1], `Cn1cnnc1[C@H](F)[C@@](C)(F)c1cccc(NC(=O)c2cc(CN3CC(C)(F)C3)nc(C3CC3)n2)c1` [Compound 44, 2-cyclopropyl-N-(3-((1S,2S)-1,2-difluoro-1-(4-methyl-4H-1,2,4-triazol-3-yl)propan-2-yl)phenyl)-6-((3-fluoro-3-methylazetidin-1-yl)methyl)pyrimidine-4-carboxamide] gave an IC50 of 4.9 µM. In test [2], the “(fold-selectivity)” value is on record as “(2.1x)” and the IC50 is 2.3 µM.
For `C[C@H](c1cc(C(=O)Nc2cccc(C3(Cc4nncn4C)COC3)c2)nc(C(F)(F)F)c1)N1CCC2(CC2)C1` [Compound 4, (R)-4-(1-(5-azaspiro[2.4]heptan-5-yl)ethyl)-N-(3-(3-((4-methyl-4H-1,2,4-triazol-3-yl)methyl)oxetan-3-yl)phenyl)-6-(trifluoromethyl)picolinamide], the IC50 in test [1] turned out to be 0.13 µM; in test [2], 0.067 µM. Moreover, the “(fold-selectivity)” value in test [2] was “(1.9x)”.
For `C[C@H](Cc1nncn1C)c1cccc(NC(=O)c2nc(C(F)(F)F)cn2C)c1` [Compound 121, (R)-1-methyl-N-(3-(1-(4-methyl-4H-1,2,4-triazol-3-yl)propan-2-yl)phenyl)-4-(trifluoromethyl)-1H-imidazole-2-carboxamide], half-maximal inhibition in test [1] (IC50) required 2.9 µM. Besides, in test [2], the “(fold-selectivity)” value is recorded as “(0.67x)” and the IC50 is 4.4 µM.
In test [1], `CC(C)[C@H]1CN(C)CCN1Cc1cc(C(=O)Nc2cccc(C3([C@@H](F)c4nncn4C)COC3)c2)nc(C2CC2)c1` [Compound 499, 6-cyclopropyl-N-(3-(3-((R)-fluoro(4-methyl-4H-1,2,4-triazol-3-yl)methyl)oxetan-3-yl)phenyl)-4-(((S)-2-isopropyl-4-methylpiperazin-1-yl)methyl)picolinamide] showed an IC50 of 0.007 µM. For the same compound, in test [2], the “(fold-selectivity)” value is on record as “(0.63x)” and the IC50 was found to be 0.011 µM.
Regarding `Cn1cnnc1C[C@]1(c2cccc(NC(=O)c3cccc(C(F)(F)F)n3)c2)C[C@@H](F)C1` [Compound 19, N-(3-((1S,3R)-3-fluoro-1-((4-methyl-4H-1,2,4-triazol-3-yl)methyl)cyclobutyl)phenyl)-6-(trifluoromethyl)picolinamide], the IC50 in test [1] was found to be 0.57 µM; in test [2] it was 0.28 µM. In addition, the “(fold-selectivity)” value in test [2] is recorded as “(2.1x)”.
In test [1], `C[C@@H](c1cc(C(=O)Nc2cccc(C3(Cc4nncn4C)COC3)c2)nc(C(F)(F)F)c1)N1CC(F)C1` [Compound 1, (S)-4-(1-(3-fluoroazetidin-1-yl)ethyl)-N-(3-(3-((4-methyl-4H-1,2,4-triazol-3-yl)methyl)oxetan-3-yl)phenyl)-6-(trifluoromethyl)picolinamide] registered an IC50 of 0.25 µM. In test [2], the “(fold-selectivity)” value is “(2.2x)” and the IC50 amounted to 0.11 µM.
The matching figures for `Cn1cnnc1[C@H](F)[C@]1(c2cccc(NC(=O)c3cccc(C(F)(F)F)n3)c2)CCO1` [Compound 503, N-(3-((R)-2-((S)-fluoro(4-methyl-4H-1,2,4-triazol-3-yl)methyl)oxetan-2-yl)phenyl)-6-(trifluoromethyl)picolinamide]: 17 µM, “(0.85x)” and 20 µM.
As for `Cn1cnnc1[C@H](F)C1(c2cccc(NC(=O)c3cc(CN4CCC5(CC5)C4)cc(C4CC4)n3)c2)COC1` [Compound 5, (R)-4-(5-azaspiro[2.4]heptan-5-ylmethyl)-6-cyclopropyl-N-(3-(3-(fluoro(4-methyl-4H-1,2,4-triazol-3-yl)methyl)oxetan-3-yl)phenyl)picolinamide], the IC50 in test [1] is 0.03 µM. For the same compound, in test [2], the “(fold-selectivity)” value is recorded as “(1.6x)” and the IC50 came out at 0.019 µM.
As to `C[C@@H](c1cc(C(=O)Nc2cccc(C3([C@@H](F)c4nncn4C)COC3)c2)nc(C2CC2)c1)N1CC(C)(F)C1` [Compound 112, 6-cyclopropyl-N-(3-(3-((R)-fluoro(4-methyl-4H-1,2,4-triazol-3-yl)methyl)oxetan-3-yl)phenyl)-4-((S)-1-(3-fluoro-3-methylazetidin-1-yl)ethyl)picolinamide], the IC50 in test [1] turned out to be 0.21 µM; in test [2] it was 0.23 µM. Further, the “(fold-selectivity)” value in test [2] was “(0.94x)”.
The matching figures for `Cn1cnnc1CC1(c2cccc(NC(=O)c3cccc(C(F)(F)F)n3)c2)CC(F)(F)C1` [Compound 16, N-(3-(3,3-difluoro-1-((4-methyl-4H-1,2,4-triazol-3-yl)methyl)cyclobutyl)phenyl)-6-(trifluoromethyl)picolinamide]: 0.41 µM, 0.26 µM and “(1.6x)”.
Turning to `Cn1cnnc1CC1(c2cccc(NC(=O)c3nc(C(F)(F)F)c[nH]3)c2)COC1` [Compound 123, N-(3-(3-((4-methyl-4H-1,2,4-triazol-3-yl)methyl)oxetan-3-yl)phenyl)-4-(trifluoromethyl)-1H-imidazole-2-carboxamide], the figures for the IC50 in test [1] and in test [2] were 1.8 µM and 2.3 µM, respectively. The “(fold-selectivity)” value in test [2] is “(0.77x)”.
As to `Cn1cnnc1CC1(c2cccc(NC(=O)c3cc(CCO)cc(C(F)(F)F)n3)c2)COC1` [Compound 506, 4-(2-hydroxyethyl)-N-(3-(3-((4-methyl-4H-1,2,4-triazol-3-yl)methyl)oxetan-3-yl)phenyl)-6-(trifluoromethyl)picolinamide], the results for the IC50 in test [1] and in test [2] were 0.16 µM and 0.15 µM, respectively. In test [2], the “(fold-selectivity)” value is recorded as “(1.1x)”.
As for `Cn1cnnc1CC1(c2cccc(NC(=O)c3cc(CN4CC(C)(CO)C4)cc(C4CC4)n3)c2)CC(F)(F)C1` [Compound 496, 6-cyclopropyl-N-(3-(3,3-difluoro-1-((4-methyl-4H-1,2,4-triazol-3-yl)methyl)cyclobutyl)phenyl)-4-((3-(hydroxymethyl)-3-methylazetidin-1-yl)methyl)picolinamide], the values for the 50% inhibitory concentration (IC50) in test [1] and in test [2] were 0.01 µM and 0.013 µM, respectively. For the same compound, the “(fold-selectivity)” value in test [2] is reported as “(0.76x)”.
The matching figures for `C[C@H](c1cc(C(=O)Nc2cccc(C3([C@H](F)c4nncn4C)COC3)c2)nc(C2CC2)c1)N1CC(C)(F)C1` [Compound 115, 6-cyclopropyl-N-(3-(3-((S)-fluoro(4-methyl-4H-1,2,4-triazol-3-yl)methyl)oxetan-3-yl)phenyl)-4-((R)-1-(3-fluoro-3-methylazetidin-1-yl)ethyl)picolinamide]: 0.056 µM, 0.05 µM and “(1.1x)”.
`C[C@@H](c1cc(C(=O)Nc2cccc(C3([C@H](F)c4nncn4C)COC3)c2)nc(C2CC2)c1)N1CC(C)(F)C1` [Compound 114, 6-cyclopropyl-N-(3-(3-((S)-fluoro(4-methyl-4H-1,2,4-triazol-3-yl)methyl)oxetan-3-yl)phenyl)-4-((S)-1-(3-fluoro-3-methylazetidin-1-yl)ethyl)picolinamide] gave an IC50 in test [1] of 0.22 µM. In test [2], the “(fold-selectivity)” value is reported as “(0.76x)” and the IC50 was found to be 0.29 µM.
`Cn1cnnc1CC1(c2cccc(NC(=O)c3cc(CN4CCC5(CC5)C4)cc(C(F)(F)F)n3)c2)COC1` [Compound 98, 4-((5-azaspiro[2.4]heptan-5-yl)methyl)-N-(3-(3-((4-methyl-4H-1,2,4-triazol-3-yl)methyl)oxetan-3-yl)phenyl)-6-(trifluoromethyl)picolinamide] came in with an IC50 in test [1] of 0.078 µM. Further, in test [2], the “(fold-selectivity)” value is reported as “(1.8x)” and the IC50 was 0.044 µM.
